# In the Kinase Knowledgebase extract (Sharma et al. 2016):
# Target: PIK3CG (human) (UniProt P48736)
# Experiment: Assessment of PIK3CG Kinase Activity
# PIK3CG (human), sequence (P48736 whole entry, looked up): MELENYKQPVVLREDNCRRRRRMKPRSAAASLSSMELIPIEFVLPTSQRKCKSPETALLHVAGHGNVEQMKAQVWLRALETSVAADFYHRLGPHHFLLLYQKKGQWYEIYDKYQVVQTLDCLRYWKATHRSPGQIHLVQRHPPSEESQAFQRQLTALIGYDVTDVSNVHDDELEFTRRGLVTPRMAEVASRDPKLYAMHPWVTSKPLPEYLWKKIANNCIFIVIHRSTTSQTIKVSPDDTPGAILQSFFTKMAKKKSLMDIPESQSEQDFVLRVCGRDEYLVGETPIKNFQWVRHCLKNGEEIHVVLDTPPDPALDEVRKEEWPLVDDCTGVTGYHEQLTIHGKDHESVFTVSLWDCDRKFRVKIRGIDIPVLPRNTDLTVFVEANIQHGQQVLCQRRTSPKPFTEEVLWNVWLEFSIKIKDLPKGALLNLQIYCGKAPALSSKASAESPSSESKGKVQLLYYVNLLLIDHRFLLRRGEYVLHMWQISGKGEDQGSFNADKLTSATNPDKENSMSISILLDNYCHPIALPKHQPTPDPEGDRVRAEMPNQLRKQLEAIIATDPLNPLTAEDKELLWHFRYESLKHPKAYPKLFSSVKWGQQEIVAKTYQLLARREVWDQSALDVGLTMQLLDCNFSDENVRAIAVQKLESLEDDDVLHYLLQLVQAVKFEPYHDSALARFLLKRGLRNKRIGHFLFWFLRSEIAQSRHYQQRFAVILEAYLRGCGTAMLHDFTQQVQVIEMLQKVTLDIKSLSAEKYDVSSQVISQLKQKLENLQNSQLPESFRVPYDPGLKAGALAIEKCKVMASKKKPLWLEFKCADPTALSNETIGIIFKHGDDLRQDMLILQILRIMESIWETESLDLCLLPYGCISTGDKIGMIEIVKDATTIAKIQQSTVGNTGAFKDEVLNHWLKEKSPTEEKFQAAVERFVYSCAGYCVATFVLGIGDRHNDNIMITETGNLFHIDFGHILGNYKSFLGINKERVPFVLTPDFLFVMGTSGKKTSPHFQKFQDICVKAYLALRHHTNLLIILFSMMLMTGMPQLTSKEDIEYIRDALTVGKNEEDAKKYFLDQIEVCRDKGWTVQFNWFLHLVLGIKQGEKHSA
row,IC50 [nM],Structure (SMILES)
1,< 800,CC(C)CNC(=O)CCNC(=O)Nc1nc2c(s1)-c1c(c(-c3cncnc3)nn1-c1ccccc1Cl)CC2
2,< 800,CCc1cccc(CNC(=O)Nc2nc3c(s2)-c2c(c(C4CC4)nn2-c2ccccc2Cl)CC3)c1
3,< 800,CN(C)CCNC(=O)Nc1nc2c(s1)-c1c(c(-c3cncnc3)nn1-c1ccccc1Cl)CC2
4,< 800,CCn1cnc(CCNC(=O)Nc2nc3c(s2)-c2c(c(C4CC4)nn2-c2ccccc2Cl)CC3)c1
5,< 800,C[C@H](NC(=O)Nc1nc2c(s1)-c1c(c(-c3ccccc3)nn1-c1ccccc1Cl)CC2)C(=O)N1CCCCC1
6,< 800,CC(C)OC(=O)N1CCC[C@@H]1CNC(=O)Nc1nc2c(s1)-c1c(c(-c3cncnc3)nn1-c1ccccc1Cl)CC2
7,< 800,CN1CCC(n2nc(-c3cncnc3)c3c2-c2sc(NC(=O)NC[C@H]4CCCN4C(=O)OC(C)(C)C)nc2CC3)CC1
8,< 800,COc1ccc(S(=O)(=O)NCCNC(=O)Nc2nc3c(s2)-c2c(c(-c4ccccc4)nn2-c2ccccc2Cl)CC3)cc1
9,< 800,NC(=O)c1cccc(CNC(=O)Nc2nc3c(s2)-c2c(c(-c4cncnc4)nn2-c2ccccc2Cl)CC3)c1
10,< 800,CCN1CCC(n2nc(-c3cccnc3)c3c2-c2sc(NC(=O)NCc4cccc(N5CCNC5=O)c4)nc2CC3)CC1
11,< 800,CCN(CC)C(=O)N1CCC[C@@H]1CNC(=O)Nc1nc2c(s1)-c1c(c(-c3cncnc3)nn1-c1ccccc1Cl)CC2
12,< 800,CCN1CCC[C@@H]1CNC(=O)Nc1nc2c(s1)-c1c(c(-c3cccnc3)nn1-c1ccccc1Cl)CC2
13,< 800,CC(C)c1noc(CCNC(=O)Nc2nc3c(s2)-c2c(c(-c4cccnc4)nn2C2CCN(C)CC2)CC3)n1
14,< 800,CNC(=O)Nc1nc2c(s1)-c1c(c(-c3cccnc3)nn1-c1ccccc1Cl)CC2
15,< 800,O=C(NCc1cc(C2CC2)n[nH]1)Nc1nc2c(s1)-c1c(c(-c3cncnc3)nn1-c1ccccc1Cl)CC2
16,< 800,CCc1cnc(CCNC(=O)Nc2nc3c(s2)-c2c(c(-c4cncnc4)nn2C2CCN(C)CC2)CC3)o1

row,IC50 [nM],Structure (SMILES)
1,< 800,NC(=O)Nc1cccc(CNC(=O)Nc2nc3c(s2)-c2c(c(C4CC4)nn2-c2ccccc2Cl)CC3)c1
2,< 800,NC(=O)N1Cc2ccc(CNC(=O)Nc3nc4c(s3)-c3c(c(-c5cccnc5)nn3-c3ccccc3Cl)CC4)cc2C1
3,< 800,CS(=O)(=O)c1ccc(CNC(=O)Nc2nc3c(s2)-c2c(c(-c4cncnc4)nn2-c2ccccc2Cl)CC3)cc1
4,< 800,O=C(NCc1cccnc1N1CCCC1)Nc1nc2c(s1)-c1c(c(-c3cncnc3)nn1-c1ccccc1Cl)CC2
5,< 800,Cn1cc(CCNC(=O)Nc2nc3c(s2)-c2c(c(-c4cccnc4)nn2-c2ccccc2Cl)CC3)cn1
6,< 800,CCNC(=O)Nc1nc2c(s1)-c1c(c(-c3cccnc3)nn1-c1ccc(S(N)(=O)=O)cc1Cl)CC2
7,< 800,O=C(NCc1ccc2c(c1)OCO2)Nc1nc2c(s1)-c1c(c(-c3cncnc3)nn1-c1ccccc1Cl)CC2
8,< 800,CCc1nnc(CCNC(=O)Nc2nc3c(s2)-c2c(c(-c4cncnc4)nn2-c2ccccc2Cl)CC3)o1
9,< 800,Cc1nn(C)cc1CNC(=O)Nc1nc2c(s1)-c1c(c(-c3cccnc3)nn1-c1ccccc1Cl)CC2
10,< 800,CCc1noc(CCNC(=O)Nc2nc3c(s2)-c2c(c(-c4cncnc4)nn2-c2ccccc2Cl)CC3)n1
11,< 800,CCc1csc(CCNC(=O)Nc2nc3c(s2)-c2c(c(-c4cccnc4)nn2-c2ccccc2Cl)CC3)n1
12,< 800,CN(C)C(=O)[C@@H]1CCCC[C@H]1NC(=O)Nc1nc2c(s1)-c1c(c(-c3ccccc3)nn1-c1ccccc1Cl)CC2
13,< 800,O=C(NCCCn1ccnc1)Nc1nc2c(s1)-c1c(c(-c3cncnc3)nn1-c1ccccc1Cl)CC2
14,< 800,CN1CCN(CCCNC(=O)Nc2nc3c(s2)-c2c(c(-c4cncnc4)nn2-c2ccccc2Cl)CC3)CC1
15,< 800,CN1CCN(CCNC(=O)Nc2nc3c(s2)-c2c(c(-c4cncnc4)nn2-c2ccccc2F)CC3)CC1
16,< 800,CC(=O)Nc1cccc(CNC(=O)Nc2nc3c(s2)-c2c(c(C4CC4)nn2-c2ccccc2Cl)CC3)c1
